Data from US10150734B2, “Solid forms of 2-(5-(3-fluorophenyl)-3-hydroxypicolinamido)acetic acid, compositions, and uses thereof” (Akebia Therapeutics, Inc., priority 2015, dated 2018).
Values after ≈ are worked out from the molar mass of the structure shown. “Also recorded” adds a separate entry of the source.

Tests used:
[1] = Single form slurry experiments of Forms A, D and G; assay type: physicochemical; settings: for Outcome in the single form and competitive slurry experiments (in words): ambient temperature, all tested conditions
Experimental: Single form slurry experiments were conducted for Forms A, D and G in three solvents stems, water, 1:2 v/v IPAc/heptane, and toluene to evaluate their physical form stability as a single polymorph (Table 14). Form A remained unchanged at six day time point. […] Form D remained unchanged for three days in water but converted to a mixture A and D at six days. In 1:2 IPAc/heptane and toluene, Form D converted to a mixture of A and D at three days and then Form A at six days. […] Form D is also a metastable polymorph but its conversion to Form A is kinetically slower than Form G. The conversion was the slowest in water partly due to low solubility.
Approximately 10-20 mg of Forms A, D and G were weighed into 8 mL clear vials equipped with magnetic stir bars (Table 14). Water, IPAc/Heptane (1:2 V/V) and toluene were used as the solvent systems for these competitive slurry experiments. Three selected solvents, 1.0 mL, were added to achieve free-flowing slurry and allowed to equilibrate at room temperature. All slurries will be isolated via centrifuge filtration after three day and six days of equilibration.

[2] = Dynamic vapour sorption (moisture sorption) with XRPD of post-DVS material; assay type: physicochemical; settings: for Moisture Sorption 60% RH / Moisture adsorbed at 60% RH / Moisture Sorption 90% RH / Weight moisture uptake at 60% RH / Weight moisture uptake at 90% RH: DVS; for Moisture Sorption 60% RH / Moisture adsorbed at 60% RH / Moisture Sorption 90% RH: 25.0 °C; for XRPD analysis of the post-DVS material: after DVS and drying at 60 °C for 2 hours; for Hygroscopicity (in words): from DVS moisture sorption
Experimental: Dynamic vapour sorption experiment was carried out by first holding the sample at 40% RH and 25.0° C. until an equilibrium weight was reached or for a maximum of four hours. The sample was then subjected to an isothermal (at 25.0° C.) adsorption scan from 40 to 90% RH in steps of 10%. The sample was allowed to equilibrate to an asymptotic weight at each point for a maximum of four hours. Following adsorption, a desorption scan from […] to 5% RH (at 25.0° C.) was run in steps of 10% again allowing a maximum of four hours for equilibration to an asymptotic weight. An adsorption scan was then performed from 0 to 40% RH in steps of 10%. The sample was then dried for no less than two hours at 60.0° C. and the resulting solid analyzed by XRPD.

[3] = Competitive slurry experiment of Forms A, D and G; assay type: physicochemical; settings: mixture of Forms A, D and G slurried in Water, RT
Experimental: To evaluate relative stability of the anhydrate polymorphs, competitive slurry experiments of Forms A, D and G were conducted as described in below and summarized in Table 12. In all three solvent systems, water, 1:2 v/v IPAc/heptane, and toluene, Form A was the final polymorph after equilibration for 8 days.
Slurry experiments were performed using the following procedure: a mixture of Form A (˜12.0 mg, Compound 1), Form D (˜12.0 mg) and Form G (˜12.0 mg) were weighed into a 20.0 mL clear vial equipped with magnetic stir bars (Table 12). Water, IPAc/Heptane (1:2 V/V) and toluene were used as the solvent systems for these competitive slurry experiments. Three selected solvents, 1.0 mL, were added to achieve free-flowing slurry and allowed to equilibrate at room temperature.

[4] = Aqueous solubility (slurry in deionized water at room temperature, filtrate by HPLC, solids by XRPD); settings: deionized water, room temperature, equilibrated with stirring, filtrate by HPLC
Experimental: Approximately 14-25 mg of Forms A, D and G were transferred to 20 mL vials equipped with magnetic stir bars. 1.0 mL of deionized water was added and the resulting free flowing slurry was allowed to equilibrate over 1 and 7 days period with stirring at room temperature. […] The filtrates were analyzed by HPLC to determine solubility.

[5] = Thermal stability experiments (solid stored at 60 °C; XRPD and HPLC); settings: for HPLC (% AUC): after storage at 60.0 °C; for Parent Material HPLC (% AUC): before storage at 60.0 °C; for Physical form / XRPD pattern change after storage at 60 °C for seven days (in words) / Chemical stability / degradation by HPLC after storage at 60 °C for seven days (in words): solid
[6] = Competitive slurry experiment of Forms A to H; assay type: physicochemical; settings: IPAc/Heptane or toluene, RT
Experimental: Approximately 2 to 3 mg of materials from Forms A to H were weighed into a 20.0 mL clear vial equipped with magnetic stir bars (Table 13). IPAc/Heptane (1:2 V/V) and toluene were used as the solvent systems for these competitive slurry experiments. Two selected solvents, 1.0 mL, were added to achieve free-flowing slurry and allowed to equilibrate at room temperature. All slurries will be isolated via centrifuge filtration after one day and seven days of equilibration.

| Outcome in the single form and competitive slurry experiments (in words) [1] | XRPD, Day 3 ([1]; single form slurry, IPAc/Heptane (1:2 V/V), RT) | XRPD, Day 3 ([1]; single form slurry, Toluene, RT) | XRPD, Day 6 ([1]; single form slurry, Water, RT, day 6) | Moisture Sorption 60% RH [2] [%] | Moisture adsorbed at 60% RH [2] [wt %] | Moisture Sorption 90% RH [2] [wt %] | Moisture Sorption 90% RH ([2]; listed as D) [wt %] | Weight moisture uptake at 60% RH [2] | Weight moisture uptake at 90% RH [2] | XRPD analysis of the post-DVS material [2] | Hygroscopicity (in words) [2] | XRPD, Day 1 [3] | Solubility (extrapolated values based on the standard curve 0.008-0.2 mg/mL) [4] [µg/mL] | HPLC (% AUC) [5] [% AUC] | Parent Material HPLC (% AUC) [5] [% AUC] | Moisture Sorption 90% RH ([2]; listed as A) [wt %] | Outcome in the competitive slurry experiment (in words) [6] | Structure (SMILES) | Physical form / XRPD pattern change after storage at 60 °C for seven days (in words) [5] | Chemical stability / degradation by HPLC after storage at 60 °C for seven days (in words) [5] |
| --- | --- | --- | --- | --- | --- | --- | --- | --- | --- | --- | --- | --- | --- | --- | --- | --- | --- | --- | --- | --- |
| converted to Form A | A + D | A + D | A + D | 0.7 | 0.7 | 1.0 | 1.0 | about 0.7 % weight | about 1.0 % weight | consistent with the starting material | slightly hygroscopic | A + D | 490 (≈ 1690 µM) | >99.9 | >99.9 |  |  | O=C(O)CNC(=O)c1ncc(-c2cccc(F)c2)cc1O [Form D, 2-(5-(3-fluorophenyl)-3-hydroxypicolinamido)acetic acid] | maintained its chemical and physical form | maintained its chemical and physical form; also recorded: chemically stable |
| most stable polymorph |  |  |  | 0 | 0 | 6.1 |  | about 0 % weight | about 6.1 % weight | consistent with the starting material | moderately hygroscopic | A + D | 2.6 (≈ 8.96 µM) | >99.9 | >99.9 | 6.1 |  | O=C(O)CNC(=O)c1ncc(-c2cccc(F)c2)cc1O [Form A, 2-(5-(3-fluorophenyl)-3-hydroxypicolinamido)acetic acid] | No chemical and physical form changes | No chemical and physical form changes; also recorded: chemically stable |
|  |  |  |  |  |  |  |  |  |  |  |  |  |  |  |  |  | converted to Form A | O=C(O)CNC(=O)c1ncc(-c2cccc(F)c2)cc1O [Form B, 2-(5-(3-fluorophenyl)-3-hydroxypicolinamido)acetic acid] |  |  |
